Legend:
GR = GR nuclear translocation (immunofluorescence in HaCaT, Western blot of nuclear extracts in CEM); format: cell-based, human; conditions: HaCaT cells, 1 uM FA
Protocol: FIG. 15. Rapamycin inhibits GR nuclear translocation and phosphorylation. A. GR nuclear translocation in HaCaT cells was determined by immunofluorescence as described in Materials and Methods. Cells on coverslips were pretreated with solvent (Control) or Rapamycin (1 uM×6 h) and treated with 1 uM FA for indicated time. B. GR nuclear translocation in CEM cells was determined by Western blot analysis of nuclear protein extracts. Membranes were probed with anti-HDAC-1 antibodies to verify equal protein loading and transfer. C, D. GR phosphorylation in HaCaT (C) and CEM (D) cells was determined by Western blot analysis of whole cell lysates. Membranes were probed with anti-GAPDH antibodies to verify equal protein loading and transfer.
GR nuclear translocation was determined by immunofluorescence in HaCaT cells. Cells infected with pGIPZ and shREDD1 lentiviruses were selected with puromycin, seeded on coverslips. After the treatments, cells were fixed with 2% formaldehyde and permeabilized with acetone:methanol (1:1 v/v). After blocking, cells were incubated with primary rabbit anti-GR antibody (H-300, Santa Cruz Biotechnology, Santa Cruz, Calif., USA) followed by secondary anti-rabbit FITC-conjugated antibody (Jackson Immuno Research). Cell nuclei were counterstained with DAPI (Invitrogen, Life Technologies, Grand Island, N.Y., USA). […]

mTOR = mTOR activity in mouse skin (phosphorylation of 4E-BP1 and rpS6, phospho-mTOR Ser2448); format: in vivo; conditions: B6D2 mice, topical FA
Description: Because REDD1 is a known inhibitor of mTOR signaling (Sofer et al, 2005; Wang et al, 2006; DeYoung et al, 2008; Shimizu et al, 2011), we tested whether FA inhibits mTOR activity in the skin. In previous studies, mTOR activity has been monitored by phosphorylation of its major substrates, 4E-BP1 (eukaryotic initiation factor 4E binding protein 1) and S6K1 (ribosomal p70/S6 kinase 1) as well as ribosomal protein S6 (rpS6), a substrate of S6K1 (Checkley et al, 2011). As basal level of S6K1 phosphorylation was low in skin of B6D2 mice, we used 4E-BP1 and rpS6 as preferred markers. […] Moreover, there was an inverse correlation between phosphorylation of mTOR targets and REDD1 expression in the epidermis. By the time when REDD1 expression reached its peak (8 h after 1st and 2nd FA applications), the repression of mTOR activity by FA was most pronounced (FIGS. 2A, B). We further confirmed this inverse correlation using immunostaining for REDD1 and active, phosphorylated at Ser2448 mTOR (FIG. 2A). […]

REDD1 = REDD1 expression in mouse epidermis and s.c. adipose (Q-PCR, Western blot, immunostaining); format: in vivo
Protocol: FIG. 16. […] F1 C57B1×129 mice were treated topically with solvent (control), FA ((2 μg/mouse×8 hrs) or pretreated with Rapamycin (500 nmol/mouse×6 hrs) followed by FA treatment for 8 h. RNA and whole cell proteins were extracted from epidermis isolated as described in Matherials and Methods. A. Q-PCR analysis of REDD1 expression. The results were normalized to the expression of the housekeeping Rp127 gene, and presented as fold of change compared to control animals. The means+/−SD calculated for three individual RNA samples/condition. a—Statistically significant difference (P<0.05) compared to control; b—Statistically significant differences (P<0.05) compared to FA treatment. B. Western blot analysis of whole cell proteins in epidermis. Membranes were probed with anti-GAPDH antibodies to verify equal protein loading and transfer. C. Ear edema test. Ear edema was induced by croton oil (CO, 20 ul/ear) as in Materials and Methods. Solvent (20 ul/ear) or FA (1 ug/ear) were applied 1 h before CO after 6 hrs of pre-treatment with rapamycin (200 ng/ear) or solvent. Mice were sacrificed and four-millimeter ear punches were weighed 9 h after CO application to assess swelling. Ear punch weight results are presented as % to control (only solvent treatment) ear weight The means+/−SD were calculated for six individual ear punches/condition in one representative experiment (out of three experiments). a—Statistically significant differences (P<0.05) compared to control treatment; b—Statistically significant differences (P<0.05) compared to CO or CO+rapa treatment.
Seven-week-old females in the telogen stage of the hair cycle were shaved and treated 3 days later. Glucocorticoid FA was applied topically (2 μg/animal) in 200 μl acetone to the back skin once or up to four times every third day as described (Chebotaev et al, 2007c). Control animals were treated with acetone only. Animals were injected i.p. with bromodeoxyuridine (BrdU, Sigma-Aldrich, 50 μg/g of animal weight) 1 h before skin was harvested. Epidermis and s.c. fat were isolated from the murine dorsal skin mechanically by scraping (Chebotaev et al, 2007c).
Sections of formalin-fixed, paraffin-embedded skin and ORCs were stained with hematoxylin and eosin (H&E), Masson's trichrome to evaluate the effect on dermis and collagen fibers (Sheehan & Hrapchack, 1980), and with antibodies against BrdU (BD Biosciences, San Jose, Calif., USA), keratins 1, 5, and 10, loricrin (Covance, Princeton, N.J.), phospho-mTORSer2448 (Cell Signaling Technology, Inc., Danvers, Mass., USA), REDD1 (Proteintech Group, Inc, Chicago, Ill.), p63 (eBioscience, San Diego, Calif., USA), and CD34 (Abcam, Cambridge, Mass., USA). […]

## CC1(C)O[C@@H]2C[C@H]3[C@@H]4C[C@H](F)C5=CC(=O)C=C[C@]5(C)[C@@]4(F)[C@@H](O)C[C@]3(C)[C@]2(C(=O)CO)O1 [FA, fluocinolone acetonide]
GR
  time GR remained in the nucleus: 2 to 24 h
  time to GR nuclear import: 10 min
mTOR
  mTOR activity in the skin: blocked mTOR activity
REDD1; B6D2 mice, 24 h after FA, Q-PCR
  REDD1 expression in s.c. adipose versus epidermis: equally activated in s.c. adipose and epidermis
REDD1; F1 C57B1×129 mice, topical FA 2 ug/animal×24 h
  REDD1 expression in skin: strongly induced
REDD1; epidermis of B6D2 mice, 4-24 h after the first FA application, Q-PCR
  REDD1 mRNA increase: ~4.5 fold
REDD1; skin of B6D2 mice, Western blot and immunostaining, single and chronic FA
  REDD1 protein expression: induced REDD1 expression as early as 4-8 h after first application

— US9980976B2, “Use of REDD1 inhibitors to dissociate therapeutic and adverse atrophogenic effects of glucocorticoid receptor agonists” (Northwestern University, priority 2015, dated 2018)
